Laboratory results reported in US20260184766A1 (priority 2022, published 2026).

What was measured:
[1] = target: biotinylated RBD (Wuhan-Hu-1) (Severe acute respiratory syndrome coronavirus 2, UniProt P0DTC2)
biotinylated RBD = biotinylated RBD (Severe acute respiratory syndrome coronavirus 2, UniProt P0DTC2)
[2] = system: pseudotyped virus carrying SARS-CoV-2 (Wuhan-Hu-1) wild-type (WT) spike protein; type: cell-based; conditions: for EC50: read-out: Virus Neutralization Pseudovirus (nM) Wild-type
[3] = system: pseudotyped virus carrying S protein of a SARS-CoV-2 delta lineage virus; type: cell-based; conditions: read-out: Virus Neutralization Pseudovirus (nM) Delta

Row | Sequence | binding of coated CDR3-knob to biotinylated RBD, in words [1] | EC50 [2] [nM] | EC50 [3] [nM] | also measured
1 | EGDKTCPDGYEHTCGCIGGCGCKRSACIGALCCQASLGGWLSDGETYTYEF [G3 Knob] | showed binding | – | – | RBD binding relative to reference anti-spike protein antibody CR3022 [1]: increased; binding to RBD after heat and SDS treatment (biotinylated RBD): maintained binding; neutralization potency of CDR3-knob only antibody, in words [2]: subnanomolar potency
2 | GGSCPDGYEHTCGCIGGCGCKRSACIGALCCQASLGGWLSD [G3 NTRUNC5] | did not correlate with any reduction in binding activity | – | – | –
3 | HWTCPDGYEHTCGCIGGCGCKRSACIGALCCQASLGGWLSDSF [2G3 knob HWSF] | – | 0.15 ± 0.03 | 21.2 ± 22.9 | –
4 | GGSEGDKTCPDGYEHTCGCIGGCGCKRSACIGALCCQASLGGW [G3 TRUNC3B] | reduced binding | – | – | –
5 | GGSEGDKTCPDGYEHTCGCIGGCGCKRSACIGALCCQASLGGWL [G3 TRUNC3A] | reduced binding | – | – | –
6 | TCPDGYEHTCGCIGGCGCKRSACIGALCCQASLGGWLSD [2G3 Knob] | – | 1.3 ± 0.3 | 71.3 ± 37.2 | –
7 | ISTCPDGYEHTCGCIGGCGCKRSACIGALCCQASLGGWLSDTV [2G3 knob ISTV] | – | 0.12 ± 0.03 | 56 ± 7.02 | –
